Experimental data taken from BindingDB's records for patent US20250257051 (1910 Genetics, 2025).

Molecular target: T1, Non-receptor tyrosine-protein kinase TYK2 [556-888] (Homo sapiens, UniProt P29597)
T1 construct: 556-888
Assay: TYK2 JH2 Domain Binding Assay
Method: Binding constants for compounds disclosed herein against the JH2 domain are determined by the following protocol for a KINOMEscan assay (DiscoveRx). A fusion protein of a partial length construct of human TYK2 (JH2domain-pseudokinase) (amino acids G556 to D888 based on reference sequence NP 003322.3) and the DNA binding domain of NFkB is expressed in transiently transfected HEK293 cells. From these HEK 293 cells, extracts are prepared in M-PER extraction buffer (Pierce) in the presence of Protease Inhibitor Cocktail Complete (Roche) and Phosphatase Inhibitor Cocktail Set II (Merck) per manufacturers' instructions. The TYK2 (JH2domain-pseudokinase) fusion protein is labeled with a chimeric double-stranded DNA tag containing the NFkB binding site (5′-GGGAATTCCC-3′) fused to an amplicon for qPCR readout, which is added directly to the expression extract (the final concentration of DNA-tag in the binding reaction is 0.1 nM).

T1 sequence (P29597 556-888): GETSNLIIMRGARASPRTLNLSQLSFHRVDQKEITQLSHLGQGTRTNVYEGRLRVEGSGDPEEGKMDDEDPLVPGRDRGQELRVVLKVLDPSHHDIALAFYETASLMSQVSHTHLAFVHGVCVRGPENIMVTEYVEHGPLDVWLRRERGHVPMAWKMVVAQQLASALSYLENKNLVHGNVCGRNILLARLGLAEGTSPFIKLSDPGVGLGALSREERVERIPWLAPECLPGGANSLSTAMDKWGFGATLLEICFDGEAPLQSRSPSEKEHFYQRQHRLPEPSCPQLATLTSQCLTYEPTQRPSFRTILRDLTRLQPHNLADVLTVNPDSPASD

Kd [µM] | SMILES
0.37 | CNC(=O)c1cnc(N2CCCC2)nc1Nc1ccc(C2CC2)nc1 [US20250257051, Compound 10]
19 | CNC(=O)c1cnc(N2CCNCC2C)nc1Nc1ccc(C2CC2)nc1 (centres undefined) [US20250257051, Compound 14]
3.3 | COc1ccccc1Nc1nc(N2CCCNCC2)ncc1C(N)=O [US20250257051, Compound 40]
2.9 | CC(C)(C)OC(=O)N1CCCN(c2ncc(C(N)=O)c(Nc3ccccc3S(C)(=O)=O)n2)CC1 [US20250257051, Compound 65]
